From BindingDB's records for doi:10.1016/S0960-894X(00)80680-0 (1993)

assay: Displacement of [125I]Bolton-Hunter-CCK-8 from guinea pig cortex Cholecystokinin type B receptor

SMILES | IC50 [µM]
CC(C)(C)OC(=O)N[C@@H](Cc1c[nH]c2ccccc12)C(=O)N[C@@H](CCCCNC(=O)C=Cc1ccc(O)cc1)C(=O)N[C@H](CNN[C@@H](Cc1ccccc1)C(N)=O)CC(=O)O [(S)-3-{2-[2-tert-Butoxycarbonylamino-3-(1H-indol-3-yl)-propionylamino]-6-[(S)-3-((S)-4-hydroxy-phenyl)-acryloylamino]-hexanoylamino}-4-[N'-((S)-1-carbamoyl-2-phenyl-ethyl)-hydrazino]-butyric acid] | 7
Cc1ccccc1NC(=O)NCCCC[C@H](NC(=O)[C@H](Cc1c[nH]c2ccccc12)NC(=O)OC(C)(C)C)C(=O)N[C@H](CNN[C@@H](Cc1ccccc1)C(N)=O)CC(=O)O [3-{2-[2-tert-Butoxycarbonylamino-3-(1H-indol-3-yl)-propionylamino]-6-[(S)-3-((1S,2S)-o-tolyl)-ureido]-hexanoylamino}-4-[N'-((S)-1-carbamoyl-2-phenyl-ethyl)-hydrazino]-butyric acid] | > 10
CC(C)(C)OC(=O)N[C@@H](Cc1c[nH]c2ccccc12)C(=O)N[C@@H](CCCCNC(=O)C=Cc1ccc(O)cc1)CNN[C@@H](CC(=O)O)C(=O)N[C@@H](Cc1ccccc1)C(N)=O [3-(N'-{(S)-2-[(S)-2-tert-Butoxycarbonylamino-3-(1H-indol-3-yl)-propionylamino]-6-[(Z)-3-(4-hydroxy-phenyl)-acryloylamino]-hexyl}-hydrazino)-N-((S)-1-carbamoyl-2-phenyl-ethyl)-succinamic acid] | 3.8
Cc1ccccc1NC(=O)NCCCC[C@H](NNC[C@H](Cc1c[nH]c2ccccc12)NC(=O)OC(C)(C)C)C(=O)N[C@@H](CC(=O)O)C(=O)N[C@@H](Cc1ccccc1)C(N)=O [(S)-3-[(S)-2-[N'-((S)-2-tert-Butoxycarbonylamino-3-1H-indol-3-yl-propyl)-hydrazino]-6-(3-o-tolyl-ureido)-hexanoylamino]-N-((S)-1-carbamoyl-2-phenyl-ethyl)-succinamic acid] | 2.5
Cc1ccccc1NC(=O)NCCCC[C@@H](CNN[C@@H](CC(=O)O)C(=O)N(C)[C@@H](Cc1ccccc1)C(N)=O)NC(=O)[C@H](Cc1c[nH]c2ccccc12)NC(=O)OC(C)(C)C [(S)-3-{N'-[2-((3aS,7S)-2-tert-Butoxycarbonylamino-3-1H-indol-3-yl-propionylamino)-6-(3-o-tolyl-ureido)-hexyl]-hydrazino}-N-((S)-1-carbamoyl-2-phenyl-ethyl)-N-methyl-succinamic acid] | > 10
CN(C(=O)[C@H](CC(=O)O)NNC[C@H](CCCCNC(=O)C=Cc1ccc(O)cc1)NC(=O)[C@H](Cc1c[nH]c2ccccc12)NC(=O)OC(C)(C)C)[C@@H](Cc1ccccc1)C(N)=O [3-(N'-{(S)-2-[(S)-2-tert-Butoxycarbonylamino-3-(1H-indol-3-yl)-propionylamino]-6-[(Z)-3-(4-hydroxy-phenyl)-acryloylamino]-hexyl}-hydrazino)-N-((S)-1-carbamoyl-2-phenyl-ethyl)-N-methyl-succinamic acid] | 5
